For orientation: % inhibition means the relative decrease from the control value, in per cent. By IC50 is commonly meant the point on the concentration scale where inhibition reaches its midpoint. Higher therefore signals lower potency.

e = 2'-O-(2-methoxyethyl) (MOE); d = 2'-deoxy (DNA)

This note sets out measurements from patent US20230263822A1, “MODULATION OF FACTOR 11 EXPRESSION” (Ionis Pharmaceuticals, Inc., priority 2008, published 2023).

The test system of series [1] is human Factor 11 mRNA. As to the kind of experiment: Antisense inhibition of human Factor 11 in HepG2 cells, lipofectin, 75 nM (Example 1). The class given is cell-based. To be noted: 75 nM antisense oligonucleotide, ~24 h, relative to untreated control cells, gapmers targeted to SEQ ID NO: 1. Put shortly: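 HepG2 cells transfected via lipofectin with 75 nM antisense oligonucleotide (5-10-5 MOE gapmers, 20-mers, phosphorothioate, 5-methylcytidines), treated ~24 h. Factor 11 mRNA quantified by real-time PCR, normalised to RIBOGREEN total RNA; percent inhibition versus untreated cells.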

Series [2] concerns human Factor 11 mRNA. The series can be described thus: Dose-dependent antisense inhibition of human Factor 11 in HepG2 cells, lipofectin 9.375-150 nM (Example 2). Format: cell-based. Particulars: ~16 h. The method, then: Cells were plated at a density of 10,000 cells per well and transfected using lipofectin reagent with 9.375 nM, 18.75 nM, 37.5 nM, 75 nM, and 150 nM concentrations of antisense oligonucleotide, as specified in Table 3. After a treatment period of approximately 16 hours, RNA was isolated from the cells and Factor 11 mRNA levels were measured by quantitative real-time PCR. Human Factor 11 primer probe set RTS 2966 (forward sequence: […], incorporated herein as SEQ ID NO: 3; reverse sequence: […], incorporated herein as SEQ ID NO: 4; probe sequence: TTGTCTACTGAAGCACACCCAAACAGGGAX, incorporated herein as SEQ ID NO: 5) was used to measure mRNA levels. Factor 11 mRNA levels were adjusted according to total RNA content, as measured by RIBOGREEN. Results are presented as percent inhibition of Factor 11, relative to untreated control cells.

Series [3] has as its system human Factor 11 mRNA. The series can be described thus: Antisense inhibition of human Factor 11 in HepG2 cells, electroporation, 8,000 nM (Example 30). Format: cell-based. Particulars: electroporation, 8,000 nM antisense oligonucleotide. The gist of the method:
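HepG2 cells electroporated with 8,000 nM 5-10-5, 5-8-5 or 6-8-6 MOE gapmers (phosphorothioate, 5-methylcytidine), ~24 h. Factor 11 mRNA quantified by qRT-PCR, normalised to RIBOGREEN total RNA. Reported as percent inhibition versus untreated cells.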

On the set-up of series [4]: species or system CD1 mice. Particulars: mouse, in vivo, sc, 50 mg/kg. The method, then: The concentration of the full-length oligonucleotide was measured. The method used is a modification of previously published methods (Leeds et al., 1996; Geary et al., 1999) which consist of a phenol-chloroform (liquid-liquid) extraction followed by a solid phase extraction. An internal standard (ISIS 355868, a 27-mer 2′-O-methoxyethyl modified phosphorothioate oligonucleotide, […], designated herein as SEQ ID NO: 270) was added prior to extraction. […] The results are presented in Table 85 expressed as μg/g liver tissue.

On the set-up of series [5]: species or system Sprague-Dawley rats. To be noted: rat, in vivo, sc, 20 mg/kg. As to the method:
The concentration of the full-length oligonucleotide as well as the total oligonucleotide concentration (including the degraded form) was measured. The method used is a modification of previously published methods (Leeds et al., 1996; Geary et al., 1999) which consist of a phenol-chloroform (liquid-liquid) extraction followed by a solid phase extraction. An internal standard (ISIS 355868, a 27-mer 2′-O-methoxyethyl modified phosphorothioate oligonucleotide, […], designated herein as SEQ ID NO: 270) was added prior to extraction. […] The results are presented in Tables 91 and 92, expressed as μg/g liver or kidney tissue. Half-lives were then calculated using WinNonlin software ([…]).

The nature of series [6]: Viscosity of ISIS antisense oligonucleotides, micro-viscometer at 25 °C (Example 47). Format: physicochemical. To be noted: for Concentration: concentration of the viscosity sample, UV reading at 260 nM at 85° C.; for Viscosity: in water, micro-viscometer at 25° C., at the concentration of the same line. Put shortly: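 Oligonucleotide (32-35 mg) was dissolved in 120 μL water by heating at 50° C, and viscosity was measured by micro-viscometer at 25° C. Concentration was checked by UV at 260 nm at 85° C on a dilution in water. Screening cut-off: >40 cP at 165-185 mg/mL.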

Series [7] relates to human Factor 11 mRNA. The series can be described thus: Antisense inhibition of human Factor 11 in HepG2 cells by microwalk gapmers, lipofectin, 75 nM (Example 3). The class given is cell-based. Particulars: HepG2 cells, lipofectin, gapmers targeted to nucleobases 1275 to 1318 of SEQ ID NO: 1. The gist of the method:
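HepG2 cells (10,000/well) were transfected via lipofectin with 75 nM 20-mer MOE gapmers (phosphorothioate, 5-methyl-C) for about 24 h. Factor 11 mRNA was measured by qRT-PCR, normalized to RIBOGREEN total RNA, and given as percent inhibition versus untreated cells.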

In series [8] the test system is human Factor 11 mRNA. The series can be described thus: Dose-dependent inhibition of human Factor 11 in HepG2 cells, electroporation 123.46-10,000 nM (Example 31). The class given is cell-based. To be noted: for Percent inhibition of Factor 11 mRNA at 123.47 nM / Percent inhibition of Factor 11 mRNA at 370.37 nM / IC50: electroporation; for Percent inhibition of Factor 11 mRNA at 123.47 nM / Percent inhibition of Factor 11 mRNA at 370.37 nM / Percent inhibition of Factor 11 mRNA at 1,111.11 nM / Percent inhibition of Factor 11 mRNA at 3,333.33 nM / Percent inhibition of Factor 11 mRNA at 10,000.0 nM: approx. 16 hours, relative to untreated control cells; for Percent inhibition of Factor 11 mRNA at 1,111.11 nM: electroporation, 1,111.11 nM; for Percent inhibition of Factor 11 mRNA at 3,333.33 nM: electroporation, 3,333.33 nM; for Percent inhibition of Factor 11 mRNA at 10,000.0 nM: electroporation, 10,000.0 nM; for IC50: Factor 11 mRNA expression. As to the method:
Cells were plated at a density of 20,000 cells per well and transfected using electroporation with 123.46 nM, 370.37 nM, 1,111.11 nM, 3,333.33 nM and 10,000 nM concentrations of antisense oligonucleotide, as specified in Table 45. After a treatment period of approximately 16 hours, RNA was isolated from the cells and Factor 11 mRNA levels were measured by quantitative real-time PCR. Human Factor 11 primer probe set RTS 2966 was used to measure mRNA levels. Factor 11 mRNA levels were adjusted according to total RNA content, as measured by RIBOGREEN. Results are presented as percent inhibition of Factor 11, relative to untreated control cells.

For series [9] the following is noted: rat, in vivo, sc, 50 mg/kg.
For series [10] the following is noted: rat, in vivo, sc, 50 mg/kg. The source holds these as a separate data set.
For series [11] the following is noted: rat, in vivo, sc, 50 mg/kg. This is another data set of the same source.

Regarding “413481 (antisense GGTGCACAGTTTCTGGCAGG; 5-10-5 MOE gapmer, further chemistry not given here) [compound 413481]”, in [1], the “% inhibition” value was 86%. In addition, the “percent inhibition of Factor 11 at 9.375 nM” value in [2] (9.375 nM) is 22%. Moreover, in series [2] (18.75 nM), the “percent inhibition of Factor 11 at 18.75 nM” value came to 38%. Moreover, in [2] (37.5 nM), the “percent inhibition of Factor 11 at 37.5 nM” value was determined as 56%. In addition, in [2] (75 nM), the “percent inhibition of Factor 11 at 75 nM” value came out at 67%. Also, the “percent inhibition of Factor 11 at 150 nM” value in series [2] (150 nM) is given as 83%. The substance also displayed an IC50 in series [2] of 32 nM. Also, in series [3], the “Percent inhibition of human Factor 11 mRNA levels” value was 82%. Also, in series [4], the “Half-Life in the liver” value amounted to 20.6 days. Moreover, the “Half-life of ISIS oligonucleotides in the liver and kidney” value (from here on “Half-life of ISIS oligonucleotides”) in [5] is 21 days. In series [6], the Concentration stood at 144 mg/mL and the Viscosity was determined as 23 cP.
“416851 (antisense GTGCACAGTTTCTGGCAGGC; 5-10-5 gapmer, further chemistry not given here) [compound 416851]”: in [7], the “% inhibition” value came out at 88%. In series [3], the “Percent inhibition of human Factor 11 mRNA levels” value is on record as 89%. In [8], the “Percent inhibition of Factor 11 mRNA at 123.47 nM” value (“Percent inhibition … at 123.47 nM” for short) is listed as 13%, the “Percent inhibition of Factor 11 mRNA at 370.37 nM” value (from here on “Percent inhibition … at 370.37 nM”) was 35%, the “Percent inhibition of Factor 11 mRNA at 1,111.11 nM” value (from here on “Percent inhibition … at 1,111.11 nM”) is recorded as 36% and the “Percent inhibition of Factor 11 mRNA at 3,333.33 nM” value (“Percent inhibition … at 3,333.33 nM” below) is listed as 64%. Moreover, in series [8], the “Percent inhibition of Factor 11 mRNA at 10,000.0 nM” value (shortened to “Percent inhibition … at 10,000.0 nM”) came out at 72% and the IC50 came out at 1500 nM. For the same substance, the “Half-Life in the liver” value in series [4] worked out at 23.8 days. Moreover, the “Half-life of ISIS oligonucleotides” value in [5] amounted to 24 days. In series [6], this substance displayed a Concentration of 187 mg/mL and a Viscosity of 26 cP.
Regarding “416860 (antisense CGGACGGCATTGGTGCACAG; 5-10-5 gapmer, further chemistry not given here) [compound 416860]”, in series [7], the “% inhibition” value came out at 88%. In [3], the “Percent inhibition of human Factor 11 mRNA levels” value is reported as 89%. In [8], the “Percent inhibition … at 123.47 nM” value is 0%, the “Percent inhibition … at 370.37 nM” value is 28%, the “Percent inhibition … at 1,111.11 nM” value is given as 39% and the “Percent inhibition … at 3,333.33 nM” value came to 41%. The “Percent inhibition … at 10,000.0 nM” value in series [8] came to 40%. The “Half-Life in the liver” value in [4] worked out at 20.6 days. Also, in series [5], the “Half-life of ISIS oligonucleotides” value came out at 21 days. In addition, in series [6], the Concentration was 154 mg/mL and the Viscosity is more than 100 cP.
Turning to “416861 (antisense GCGGACGGCATTGGTGCACA; 5-10-5 gapmer, further chemistry not given here) [compound 416861]”, the “% inhibition” value in series [7] stood at 92%. For the same substance, the “Percent inhibition of human Factor 11 mRNA levels” value in series [3] was determined as 90%. In [8], the “Percent inhibition … at 123.47 nM” value worked out at 0%, the “Percent inhibition … at 370.37 nM” value worked out at 15%, the “Percent inhibition … at 1,111.11 nM” value is recorded as 27% and the “Percent inhibition … at 3,333.33 nM” value is listed as 66%. In series [8], the “Percent inhibition … at 10,000.0 nM” value came to 80% and 2000 nM corresponded to half-maximal inhibition (IC50). Further, the “Half-Life in the liver” value in series [4] came out at 24.5 days. Further, the “Half-life of ISIS oligonucleotides” value in [5] was found to be 25 days. In series [6], this substance showed a Concentration of 110 mg/mL and a Viscosity of 14 cP.
As for “416867 (antisense ACTGGCAGCGGACGGCATTG; 5-10-5 gapmer, further chemistry not given here) [compound 416867]”, the “% inhibition” value in series [7] came to 83%. In addition, the “Percent inhibition of human Factor 11 mRNA levels” value in series [3] was determined as 85%. Moreover, the “Half-Life in the liver” value in [4] was found to be 18.9 days. For the same substance, the “Half-life of ISIS oligonucleotides” value in [5] is given as 19 days. Also, in series [6], the Concentration was 168 mg/mL and the Viscosity is 8 cP.
As for “ISIS 416825: 5-10-5 MOE gapmer GCCCTTCATGTCTAGGTCCA (sugars from the 5' end e5 d10 e5, backbone and methylation of C not given here)”, in [9], the ALT turned out to be 89 IU/L, the AST came to 17 IU/L, the Albumin was found to be 2 and the Bilirubin is 4 mg/dL. In addition, in series [10], the BUN amounted to 7 mg/dL and the Creatinine turned out to be 17 mg/dL. Besides, in series [11], the HCT was 2%, the MCH is listed as 2, the MCHC stood at 4% and the MCV amounted to 4. In series [11], the Platelets is listed as 6 10^3/μL, the RBC amounted to 2, the WBC is 22 nL⁻¹ and the hemoglobin is 2 g/dL. Also, in series [11], the lymphocytes is reported as 3%, the monocytes came out at 15% and the neutrophils is listed as 25%.
As for “ISIS 416826: 5-10-5 MOE gapmer ATGCCCTTCATGTCTAGGTC (sugars from the 5' end e5 d10 e5, backbone and methylation of C not given here)”, in [9], the ALT stood at 611 IU/L, the AST is given as 104 IU/L, the Albumin is 6 and the Bilirubin is on record as 115 mg/dL. In [10], this substance yielded a BUN of 25 mg/dL and a Creatinine of 6 mg/dL. In addition, in series [11], the HCT was 7%, the MCH is given as 3, the MCHC amounted to 4% and the MCV came to 6. Further, in series [11], the Platelets was 11 10^3/μL, the RBC is on record as 5, the WBC came out at 7 nL⁻¹ and the hemoglobin came to 7 g/dL. In [11], this substance returned a lymphocytes of 5%, a monocytes of 7% and a neutrophils of 30%.
